Experimental data from PubChem BioAssay AID540252 (Sanford-Burnham Center for Chemical Genomics, 2011).
Active and inactive are the calls of the source. How the calls were made is not given here.

Target: glucose-6-phosphate dehydrogenase-6-phosphogluconolactonase (Plasmodium falciparum 3D7)
Test: PfG6PD enzyme inhibitors, direct NADPH readout, dose response, orthogonal assay, biochemical, end-point NADPH detection (AID 540252)
Details: purified PfG6PD enzyme

CCc1ccc(S(=O)(=O)Nc2cc(SCC(=O)O)c(O)c3ccccc23)cc1
IC50: > 80 µM (inactive)

O=C1C=CC(=O)N1c1ccc2c(c1)C(NC(=O)C(F)(F)F)c1ccccc1-2 (configuration not stated)
IC50: 20 µM

CCOC(=O)Cc1csc(-n2sc3ccccc3c2=O)n1
IC50: > 80 µM (inactive)

COCc1cc(=O)n2[nH]c(C(C)(C)C)cc2n1
IC50: > 80 µM (inactive)

O=C(Cc1ccccc1)NCC(=O)OCC(=O)c1ccc([N+](=O)[O-])cc1
IC50: 64 µM

Nc1ccc2c3c(cccc13)-c1ccccc1-2
IC50: > 80 µM (inactive)

CC(C)Sc1nnc(NC(=O)c2ccc3c(c2)OCO3)s1
IC50: > 80 µM (inactive)

CN(C)c1ccc2nc3ccc(=O)cc-3sc2c1
IC50: > 80 µM (inactive)

COC1=C(N)C(=O)c2nc(C)ccc2C1=O
IC50: > 80 µM (inactive)

COc1cc(O)c(C(=O)O)c(-c2cc(O)c(O)cc2C)c1
IC50: > 80 µM (inactive)

O=[N+]([O-])c1c(NCCO)cc(Sc2nc3ccccc3s2)c2nonc12
IC50: > 80 µM (inactive)

O=C1CCN(c2ccccc2)N1
IC50: > 80 µM (inactive)

CN1CC[C@@]2(C)c3cc(O)ccc3N(C)[C@@H]12
IC50: > 80 µM (inactive)

Cc1ccc(S(=O)(=O)Nc2nc(C)c(C(=O)N/N=C/c3ccccc3)s2)cc1
IC50: > 80 µM (inactive)

O=C1C=C(NCCc2cc(Br)c(O)c(Br)c2)C(=O)c2ncccc21
IC50: > 80 µM (inactive)

NCCNc1ccc(C(=O)N2c3ccccc3Sc3ccccc32)cc1[N+](=O)[O-]
IC50: 13.2 µM

CCN(CC)c1nc(N)nc(NS(=O)(=O)c2ccc(Cl)cc2)n1
IC50: > 80 µM (inactive)

O=C(Cn1sc2ccccc2c1=O)Nc1ccc(Cl)cc1
IC50: 15.2 µM

CCc1cc(-c2n[nH]c(C)c2-c2nc3ccccc3n2C)c(O)cc1O
IC50: > 80 µM (inactive)

CCOc1ccc(Cl)cc1/C=N/NC(N)=O
IC50: > 80 µM (inactive)

C/C(Cn1nnc([N+](=O)[O-])n1)=N\NC(=O)c1ccccc1O
IC50: > 80 µM (inactive)

Cc1cc(C)c2c(=O)n(CC(=O)Nc3cccc(Cl)c3C)sc2n1
IC50: > 80 µM (inactive)

NS(=O)(=O)c1ccc(-c2ccc(C=C3C(=O)NC(=O)NC3=O)o2)cc1
IC50: > 80 µM (inactive)

CN(C)c1ccc(C=c2c3cc(O)ccc3n3c2cc(-c2ccccc2)[n+]3C)cc1
IC50: > 80 µM (inactive)

Cc1ccsc1/C=N/NC(=O)c1cccc(S(=O)(=O)Nc2ccccc2Cl)c1
IC50: > 80 µM (inactive)

O=c1c2ccccc2sn1-c1nccs1
IC50: 26.2 µM

COc1c(O)c(O)c2oc(-c3ccccc3)cc(=O)c2c1OC
IC50: > 80 µM (inactive)

CCC(C)c1ccccc1OCCn1ccnc1 (configuration not stated)
IC50: > 80 µM (inactive)

CC1(OC(=O)C2CCCC2)C(=O)C=C2C=C(c3ccsc3)N(CC3CC3)C=C2C1=O (configuration not stated)
IC50: > 80 µM (inactive)

CCOc1ccc(NC(=O)Cn2sc3nc(C)cc(C)c3c2=O)cc1
IC50: > 80 µM (inactive)

CC1COCC(C)N1C1=C(Cl)C(=O)c2ccccc2C1=O (configuration not stated)
IC50: > 80 µM (inactive)

NC1CCc2cc(O)c(O)cc2C1 (configuration not stated)
IC50: 27.5 µM

Cc1cc(C)c(S(=O)(=O)/N=C2/C=C(SCC(=O)O)C(=O)c3ccccc32)cc1C
IC50: > 80 µM (inactive)

CCOC(=O)c1c(C)n(-c2ccc(C)cc2)c2c(C(C(C)=O)C(=O)O)c(Br)c(O)c(O)c12 (configuration not stated)
IC50: > 80 µM (inactive)

COc1ccc(C(=O)Nc2cc(Cl)ccc2C(=O)O)cc1
IC50: > 80 µM (inactive)

CCN1CCCC1CNC(=O)c1ccc2c(c1)NC(=O)/C(=C\c1ccccc1F)S2 (configuration not stated)
IC50: > 80 µM (inactive)

O=c1[nH]c2ccccc2n2c(-c3ccccc3)nnc12
IC50: > 80 µM (inactive)

CCN(CC)c1ccc(NC(=O)c2cccc(C)c2)cc1S(=O)(=O)Nc1ccccc1OC
IC50: > 80 µM (inactive)

Oc1cc(-n2cccn2)c(O)cc1-n1cccn1
IC50: > 80 µM (inactive)

COc1ccc(OCc2nnc3n2N=C(c2ccccc2)C(CC(=O)O)S3)cc1 (configuration not stated)
IC50: > 80 µM (inactive)

Cc1ccc(NC(=O)c2cc(N3C(=O)C=CC3=O)ccc2Cl)cc1C
IC50: 49.2 µM

O=c1[nH]c2ccc(NCc3ccccc3OCc3ccc(Cl)cc3)cc2[nH]1
IC50: > 80 µM (inactive)

Cc1ccc(-n2sc3cc(F)ccc3c2=O)c(C)c1
IC50: 12.2 µM

C[C@H](NC(=O)c1cc2c(cn1)[nH]c1ccccc12)C(=O)O
IC50: > 80 µM (inactive)

Cc1ccc2nc(SCC(=O)N/N=C/c3ccco3)cc(C)c2c1
IC50: > 80 µM (inactive)

CCC(CO)[n+]1c(C)cc(/C=C2\Sc3ccccc3N2Cc2ccccc2)cc1C (configuration not stated)
IC50: > 80 µM (inactive)

O=C(Nc1ccc(N2CCN(C(=O)c3ccco3)CC2)c(Cl)c1)c1cc2ccccc2o1
IC50: > 80 µM (inactive)

Cn1c(=O)[nH]c(=O)c2c1nc(SCCN1CCCCC1)n2CCCc1ccccc1
IC50: > 80 µM (inactive)

O=C(O)C(Cc1ccccc1)N1C(=O)C=CC1=O (configuration not stated)
IC50: 51 µM

COc1cc(CN2CCCC(C(=O)c3ccc4c5c(cccc35)CC4)C2)cc(OC)c1O (configuration not stated)
IC50: > 80 µM (inactive)

O=C1C=CC(=O)N1c1ccc(N2CCCCC2)cc1
IC50: 38 µM

S=c1ncc2[nH]c(=S)[nH]c2[nH]1
IC50: 60.5 µM

Cc1cc(=O)[nH]c(N/N=C/c2c(C)nn(-c3ccccc3)c2Cl)n1
IC50: 19.9 µM

O=C1NC(=O)C(=Cc2ccc(-c3ccccc3[N+](=O)[O-])o2)C(=O)N1
IC50: > 80 µM (inactive)

CC(C)Cn1c([N+](=O)[O-])nc2c1c(=O)[nH]c(=O)n2C
IC50: > 80 µM (inactive)

COc1ccc(-n2c(=S)[nH]c3c(sc(=S)n3-c3ccccc3)c2=O)c(OC)c1
IC50: 58 µM

CCc1c(C(=O)Nc2ccccc2)c(C)[nH]c(=S)c1C#N
IC50: > 80 µM (inactive)

CC(=O)Nc1ccc(S(=O)(=O)NNc2cccc(C)c2)cc1
IC50: > 80 µM (inactive)

COC(=O)[C@H](C)NC(=O)c1cc2c(cn1)[nH]c1ccccc12
IC50: > 80 µM (inactive)

COC(=O)CCC(=O)OC1(C)C(=O)C2=CN(c3ccc(OC)cc3)C(c3ccc(OC)cc3)=CC2=C(Br)C1=O (configuration not stated)
IC50: > 80 µM (inactive)

O=c1[nH]sc2cc(F)ccc12
IC50: > 80 µM (inactive)

O=C(CCc1ccc(O)c(O)c1)N/N=C/c1cc2c(cc1[N+](=O)[O-])OCO2
IC50: > 80 µM (inactive)

COc1cccc(CNc2ccc3[nH]c(=O)[nH]c3c2)c1OCc1ccc(F)cc1
IC50: > 80 µM (inactive)

Cc1cccc(C(=O)Nc2nnc(S(=O)(=O)N3CCCCCC3)s2)c1
IC50: > 80 µM (inactive)

CN1CCN(C(=S)c2ccc([N+](=O)[O-])cc2)CC1
IC50: 65.5 µM

Cc1[nH]c2ccccc2c1/C=N/NC(=O)c1cccc(S(=O)(=O)Nc2ccccc2Cl)c1
IC50: > 80 µM (inactive)

CCC1(CC)Cc2ccccc2C(N)=C1C#N
IC50: > 80 µM (inactive)

Cc1cc(NC(=O)c2oc3ccccc3c2C)ccc1-n1cnnn1
IC50: > 80 µM (inactive)

CC(=O)OCCCNc1cc(Sc2nc3ccccc3s2)c2nonc2c1[N+](=O)[O-]
IC50: > 80 µM (inactive)

Cc1ccc(/C=C/C(=O)Nc2ccc([N+](=O)[O-])c(NC(=O)/C=C/c3ccc(C)o3)c2)o1
IC50: 33.6 µM

c1cc(CNc2ccc3c(c2)OCO3)ccn1
IC50: > 80 µM (inactive)

COc1cc(NCCCn2cnc(C(=O)Nc3ccc(C)c(C)c3)n2)cc(OC)c1OC
IC50: > 80 µM (inactive)

O=C1/C(=C\c2ccc([N+](=O)[O-])cc2)CS(=O)(=O)C/C1=C/c1ccc([N+](=O)[O-])cc1
IC50: > 80 µM (inactive)

CCCN1CCc2cc(O)cc3c2[C@H]1Cc1ccc(O)c(O)c1-3
IC50: > 80 µM (inactive)

CC1=CC(C)(C)Nc2ccc(OC(=O)CN3C(=O)CCC3=O)cc21
IC50: > 80 µM (inactive)

COc1ccc(Nc2cc(C)c3c(O)cccc3n2)cc1
IC50: > 80 µM (inactive)

CCC1(C)CC(C(N)=S)CCO1 (configuration not stated)
IC50: > 80 µM (inactive)

Cc1ccc(NC(=O)c2cc(C)n(-c3ccccc3)c2C)cc1
IC50: > 80 µM (inactive)

Cc1cccc(-n2c(=S)[nH]c3sc4c(c3c2=O)CCc2ccccc2-4)c1
IC50: > 80 µM (inactive)

Cc1ccc(/C=C/C(=O)NCCc2cccc(Cl)c2)o1
IC50: > 80 µM (inactive)

COc1cc(CNc2ccc(N3CCCC3)cc2)cc(Cl)c1OC
IC50: > 80 µM (inactive)

COc1ccccc1N1CSC2=C(C#N)C(c3ccc(SC)cc3)CC(=O)N2C1 (configuration not stated)
IC50: > 80 µM (inactive)

COc1ccc(CCn2c(NN=C3CCCC3)nc3c2c(=O)[nH]c(=O)n3C)cc1
IC50: > 80 µM (inactive)

O=[N+]([O-])c1ccc(N/N=C/c2ccc(O)c(O)c2O)c(S(=O)(=O)N2CCOCC2)c1
IC50: 47.5 µM

CC(C)(C)NC(=O)COc1ccc(CNc2ccc3[nH]c(=O)[nH]c3c2)cc1
IC50: > 80 µM (inactive)

O=C(Sc1n[nH]c(=O)[nH]c1=O)c1ccccc1
IC50: 23.3 µM

Cc1ccc(-c2csc(NC(=O)c3ccccc3F)c2C(=O)O)cc1
IC50: > 80 µM (inactive)

Cc1ccc(C(=O)/C=C/C(=O)c2ccc(C)cc2)cc1
IC50: 42 µM

CC1(OC(=O)C2CCCC2)C(=O)C=C2C=C(c3ccsc3)N(CCc3c[nH]c4ccccc34)C=C2C1=O (configuration not stated)
IC50: > 80 µM (inactive)

O=C(CNC(=O)c1ccccc1)NCC(=O)OCC(=O)c1ccc([N+](=O)[O-])cc1
IC50: 59.6 µM

CCN(CC)c1ccc(C(=C2C=CC(=[N+](CC)CC)C=C2)c2ccccc2)cc1
IC50: > 80 µM (inactive)

Cc1cccc(C(=O)Nc2nnc(S(=O)(=O)N3CCOCC3)s2)c1
IC50: > 80 µM (inactive)

Cc1ccc(NS(=O)(=O)c2ccccc2Cl)c2c1CC(C)(C)O2
IC50: > 80 µM (inactive)

CCCCCCCCn1sccc1=O
IC50: 46 µM

COC(=O)[C@H](CCSC)NC(=O)c1cc2c(cn1)[nH]c1ccccc12
IC50: > 80 µM (inactive)

CN(C)c1cccc2c1c(NC(=O)c1ccc(Cl)cc1)nn2C
IC50: > 80 µM (inactive)

O=c1c2ccc(F)cc2sn1-c1ccccc1
IC50: 14.5 µM

CC1CCc2c(nc3sc4c(c3c2N)CCCC4)C1 (configuration not stated)
IC50: > 80 µM (inactive)

COc1cc(N)c2ncccc2c1OC
IC50: > 80 µM (inactive)

Cc1ccc(/C=C/C(=O)NCc2ccc(S(N)(=O)=O)cc2)o1
IC50: > 80 µM (inactive)

CCCCCCCCSC1=CC(=O)C(OC)=C(OC)C1=O
IC50: > 80 µM (inactive)

COc1cccc(/C=N/NC(=O)c2c(C)nc3ccc(Br)cn23)c1
IC50: > 80 µM (inactive)
